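1) Cells in 96-well plates. 2) Compound, 48 h, 5 concentrations. 3) Linear interpolation between surrounding doses. 4) Unreached endpoint = highest concentration. Here, GI50 denotes the concentration required for 50% inhibition of growth.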 Calls of active or inactive are those of the source. Rule as the data show it: active = GI50 up to about 1.1 µM and inactive = higher.
Experiments:
Test in all cases: DTP human tumour cell line panel, 48 h
786-0 = test system: 786-0
A498 = test system: A498
A549 = test system: A549
ACHN = test system: ACHN
BT-549 = test system: BT-549
CAKI-1 = test system: CAKI-1
CCRF-CEM = test system: CCRF-CEM
COLO 205 = test system: COLO 205
DU-145 = test system: DU-145
EKVX = test system: EKVX
HCC 2998 = test system: HCC 2998
HCT-116 = test system: HCT-116
HCT-15 = test system: HCT-15
HL-60 = test system: HL-60
HOP-62 = test system: HOP-62
HOP-92 = test system: HOP-92
HT-29 = test system: HT-29
Hs-578T = test system: Hs-578T
IGROV-1 = test system: IGROV-1
K562 = test system: K562
KM12 = test system: KM12
LOX IMVI = test system: LOX IMVI
M14 = test system: M14
MCF7 = test system: MCF7
MDA-MB-231 = test system: MDA-MB-231
MDA-MB-435 = test system: MDA-MB-435
MDA-N = test system: MDA-N
MOLT-4 = test system: MOLT-4
Malme-3M = test system: Malme-3M
NCI-H226 = test system: NCI-H226
NCI-H23 = test system: NCI-H23
NCI-H460 = test system: NCI-H460
NCI-H522 = test system: NCI-H522
NCI/ADR-RES = test system: NCI/ADR-RES
OVCAR-3 = test system: OVCAR-3
OVCAR-4 = test system: OVCAR-4
OVCAR-5 = test system: OVCAR-5
OVCAR-8 = test system: OVCAR-8
PC-3 = test system: PC-3
RPMI-8226 = test system: RPMI-8226
RXF 393 = test system: RXF 393
SF-268 = test system: SF-268
SF-295 = test system: SF-295
SF-539 = test system: SF-539
SK-MEL-28 = test system: SK-MEL-28
SK-MEL-2 = test system: SK-MEL-2
SK-MEL-5 = test system: SK-MEL-5
SK-OV-3 = test system: SK-OV-3
SN12C = test system: SN12C
SNB-19 = test system: SNB-19
SNB-75 = test system: SNB-75
SR = test system: SR
SW-620 = test system: SW-620
T47D = test system: T47D
TK-10 = test system: TK-10
U-251 = test system: U-251
UACC-257 = test system: UACC-257
UACC-62 = test system: UACC-62
UO-31 = test system: UO-31

For `CC(=O)c1c2c(c3ccccc3c1O)O[C@@H]1OCC[C@H]21`, the GI50 (786-0) was > 100 µM (inactive), the GI50 (A498) was > 100 µM (inactive) and the GI50 (A549) was > 100 µM (inactive). For the same compound, the GI50 (ACHN) was > 100 µM (inactive), the GI50 (BT-549) was 48.4 µM (inactive) and the GI50 (CAKI-1) was > 100 µM (inactive). The GI50 (CCRF-CEM) was > 100 µM (inactive), the GI50 (COLO 205) was > 100 µM (inactive) and the GI50 (DU-145) was > 100 µM (inactive). For the same compound, the GI50 (EKVX) was > 100 µM (inactive), the GI50 (HCC 2998) was > 100 µM (inactive) and the GI50 (HCT-116) was > 100 µM (inactive). For the same compound, the GI50 (HCT-15) was over 100 µM, the GI50 (HL-60) was > 100 µM (inactive) and the GI50 (HOP-62) was > 100 µM (inactive). For the same compound, the GI50 (HOP-92) was > 100 µM (inactive), the GI50 (HT-29) was > 100 µM (inactive) and the GI50 (Hs-578T) was > 100 µM (inactive). The GI50 (IGROV-1) was > 100 µM (inactive), the GI50 (K562) was > 100 µM (inactive) and the GI50 (KM12) was > 100 µM (inactive). For the same compound, the GI50 (LOX IMVI) was > 100 µM (inactive), the GI50 (M14) was > 100 µM (inactive) and the GI50 (MCF7) was 30 µM (inactive). The GI50 (MDA-MB-231) was > 100 µM (inactive), the GI50 (MDA-MB-435) was > 100 µM (inactive) and the GI50 (MDA-N) was > 100 µM (inactive). For the same compound, the GI50 (MOLT-4) was > 100 µM (inactive), the GI50 (Malme-3M) was > 100 µM (inactive) and the GI50 (NCI-H226) was > 100 µM (inactive). The GI50 (NCI-H23) was > 100 µM (inactive), the GI50 (NCI-H460) was > 100 µM (inactive) and the GI50 (NCI-H522) was > 100 µM (inactive). For the same compound, the GI50 (NCI/ADR-RES) was > 100 µM (inactive), the GI50 (OVCAR-3) was > 100 µM (inactive) and the GI50 (OVCAR-4) was 53.3 µM (inactive). The GI50 (OVCAR-5) was > 100 µM (inactive), the GI50 (OVCAR-8) was > 100 µM (inactive) and the GI50 (PC-3) was > 100 µM (inactive). The GI50 (RPMI-8226) was 94.6 µM (inactive), the GI50 (RXF 393) was > 100 µM (inactive) and the GI50 (SF-268) was > 100 µM (inactive). The GI50 (SF-295) was > 100 µM (inactive), the GI50 (SF-539) was > 100 µM (inactive) and the GI50 (SK-MEL-28) was > 100 µM (inactive). The GI50 (SK-MEL-2) was > 100 µM (inactive), the GI50 (SK-MEL-5) was > 100 µM (inactive) and the GI50 (SK-OV-3) was > 100 µM (inactive). The GI50 (SN12C) was > 100 µM (inactive), the GI50 (SNB-19) was > 100 µM (inactive) and the GI50 (SNB-75) was 11.5 µM (inactive). The GI50 (SR) was > 100 µM (inactive), the GI50 (SW-620) was > 100 µM (inactive) and the GI50 (T47D) was > 100 µM (inactive). For the same compound, the GI50 (TK-10) was > 100 µM (inactive), the GI50 (U-251) was > 100 µM (inactive) and the GI50 (UACC-257) was > 100 µM (inactive). For the same compound, the GI50 (UACC-62) was > 100 µM (inactive) and the GI50 (UO-31) was > 100 µM (inactive).
